± gives the expanded uncertainty stated by the source.
Details: 101.33 kPa, Liquid; for viscosity: Capillary tube (Ostwald / Ubbelohde) method; for mass density: Pycnometric method; for speed of sound: Sing-around technique in a fixed-path interferometer

Row | SMILES | viscosity (303.15 K) | mass density (303.15 K) | speed of sound (303.15 K) | viscosity (308.15 K) | mass density (308.15 K) | speed of sound (308.15 K) | viscosity (313.15 K) | mass density (313.15 K) | speed of sound (313.15 K)
1 | CCC(C)=O [butanone] | 0.352 ± 0.009 mPa·s | 802.5 ± 3.7 kg/m3 | 1168.6 ± 6.9 m/s | 0.334 ± 0.009 mPa·s | 800.1 ± 3.6 kg/m3 | 1157.2 ± 6.9 m/s | 0.315 ± 0.008 mPa·s | 800.3 ± 3.7 kg/m3 | 1130.4 ± 6.8 m/s
2 | CN(C)C=O [dimethylformamide] | 0.715 ± 0.018 mPa·s | 927.2 ± 4.9 kg/m3 | 1404.6 ± 7.5 m/s | 0.693 ± 0.018 mPa·s | 919.7 ± 4.8 kg/m3 | 1400.8 ± 7.5 m/s | 0.677 ± 0.018 mPa·s | 916.4 ± 4.8 kg/m3 | 1420.8 ± 7.6 m/s
3 | CCO [ethanol] |  | 772.4 ± 3.4 kg/m3 | 1135.4 ± 6.8 m/s | 0.658 ± 0.017 mPa·s | 771.6 ± 3.4 kg/m3 | 1133.2 ± 6.8 m/s | 0.617 ± 0.016 mPa·s | 771.2 ± 3.4 kg/m3 | 1130.8 ± 6.8 m/s
